Source: paper PMC5446891, “Inhibition of α-Amylases by Condensed and Hydrolysable Tannins: Focus on Kinetics and Hypoglycemic Actions” (Enzyme Research, 2017)

Tests used:
[1] = system: intestinal starch absorption (in vivo α-amylase); test: glycemic levels of rats after starch administration; parameters: species or system Wistar rats; settings: intragastric with starch 1 g/kg, 60 min; acarbose 50 mg/kg, tannins 100-500 mg/kg
Protocol: Male healthy Wistar rats weighing 200-250 g were used in all experiments. The rats were housed, fed, and treated in accordance with the universally accepted guidelines for animal experimentation. Prior to the investigations, the animals were kept for one week under standard environmental conditions. Throughout the experimentation period, the rats were maintained in single cages and had access to standard pelleted diet and water ad libitum. Food was withdrawn 18 h before the experiments. All experiments involving rats were done in accordance with the worldwide accepted ethical guidelines for animal experimentation and previously approved by the Ethics Committee for Animal Experimentation of the University of […]á (Protocol number 067/2014-CEUA-UEM). Rats were divided into 9 groups (n = 4 rats per group). To group I (positive control) commercial corn starch (1 g per kg body weight) was given intragastrically. Group II (negative control) received only tap water. […] Fasting blood glucose levels were determined before the administration of starch and amylase inhibitors (0 time). […] Blood glucose from cut tail tips was determined using Accu-Chek® Active Glucose Meter. […] The areas were determined with the corresponding data in Figures 6(a) and 6(b) using the numerical integration procedures of the Scientist Software from MicroMath Scientific Software (Salt Lake City, UT). […]

[2] = target: T1, porcine pancreatic α-amylase (Sus scrofa, UniProt P00690); parameters: method as in doi:10.1016/j.foodres.2013.12.004, PMID 8944767; settings: cited from earlier work
T1 construct: purchased Sigma-Aldrich Co. Type VI-B
T1 sequence (P00690 16-511): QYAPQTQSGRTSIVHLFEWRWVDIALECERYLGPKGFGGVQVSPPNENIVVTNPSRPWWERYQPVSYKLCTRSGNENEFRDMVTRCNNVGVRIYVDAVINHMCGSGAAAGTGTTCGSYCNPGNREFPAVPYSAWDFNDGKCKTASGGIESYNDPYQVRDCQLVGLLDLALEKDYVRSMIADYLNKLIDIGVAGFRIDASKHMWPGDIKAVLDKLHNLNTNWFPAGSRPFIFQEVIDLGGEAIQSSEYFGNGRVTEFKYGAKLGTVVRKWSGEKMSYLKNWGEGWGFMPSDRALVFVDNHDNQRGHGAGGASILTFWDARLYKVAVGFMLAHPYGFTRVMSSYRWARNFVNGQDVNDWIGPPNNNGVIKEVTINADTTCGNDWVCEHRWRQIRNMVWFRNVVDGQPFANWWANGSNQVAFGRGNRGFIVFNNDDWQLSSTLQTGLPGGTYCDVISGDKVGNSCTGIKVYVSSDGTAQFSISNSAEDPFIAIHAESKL

For `C[C@H]1O[C@H](O[C@H]2[C@H](O)[C@@H](O)[C@@H](O[C@H]3[C@H](O)[C@@H](O)C(O)O[C@@H]3CO)O[C@@H]2CO)[C@H](O)[C@@H](O)[C@@H]1N[C@H]1C=C(CO)[C@@H](O)[C@H](O)[C@H]1O` (some centres unmarked) [acarbose], the “effect on glycemic levels after starch administration” value [1] is listed as “diminished the increase in blood glucose concentration” and the “inhibitory potency compared with the tannins” value [2] is listed as “much better inhibitor of the pancreatic α-amylase than the tannins”.
